Here are results for 24 compounds from patent publication US9938301B2, “Dihydropyrimido fused ring derivative as HBV inhibitor” (QILU PHARMACEUTICAL CO., LTD., priority 2014, dated 2018).

pEC50: −log10 of the molar value. A value given as a limit tells only on which side of the number the result lay.

The subject of the first test is HBV DNA in HepG2.2.15 cells. Nature of the test: HBV in vitro dot-blot hybridization test. To be noted: Hepatitis B virus, HepG2.2.15, dot-blot hybridization assay, read-out: Concentration for 50% inhibition of HBV (EC50)value. The class given is cell-based, Hepatitis B virus. Summed up:
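HepG2.2.15 cells (4×10^4/well) treated in duplicate with 6 five-fold compound dilutions (1% DMSO final), medium with compound renewed on day 5, cells harvested day 8-9. Intracellular HBV DNA quantified by dot-blot with DIG-labelled probe; % inhibition normalised to 1 μM GLS4 (100%) and DMSO (0%), EC50 fitted.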
Regarding `CCOC(=O)C1=C2C[C@H](NS(=O)(=O)C(C)C)CN2C(c2nccs2)=N[C@H]1c1ccc(F)cc1Br` [Example 117], the pEC50 is > 7.00.
Take `CCOC(=O)C1=C2CN(C(=O)C3COC3)CCN2C(c2nccs2)=N[C@H]1c1ccc(F)cc1Br` [Example 118]: the pEC50 is 6.30 to 7.00.
Same read-out and setting: for `CCOC(=O)C1=C2C[C@@H](CNC(C)=O)CN2C(c2nccs2)=N[C@H]1c1ccc(F)cc1Br` [Example 119] the value was > 7.00.
With `CCOC(=O)C1=C2C[C@H](CNC(C)=O)CN2C(c2nccs2)=N[C@H]1c1ccc(F)cc1Br` [Example 120], the pEC50 was > 7.00.
The same measure, in the same setting: in the case of `CCOC(=O)C1=C2C[C@H](CNS(=O)(=O)C3CC3)CN2C(c2nccs2)=N[C@H]1c1ccc(F)cc1Br` [Example 121] it was > 7.00.
Take `CCOC(=O)C1=C2C[C@@H](CNS(=O)(=O)C3CC3)CN2C(c2nccs2)=N[C@H]1c1ccc(F)cc1Br` [Example 122]: the pEC50 is 5.30 to 6.00.
Still for that read-out and setting: in the case of `CCOC(=O)C1=C2C[C@@H](NS(=O)(=O)C(F)F)CN2C(c2nccs2)=N[C@H]1c1ccc(F)cc1Br` [Example 123] it was > 7.00.
Same read-out and setting: in the case of `CCOC(=O)C1=C2C[C@H](NS(=O)(=O)C(F)F)CN2C(c2nccs2)=N[C@H]1c1ccc(F)cc1Br` [Example 124] it was > 7.00.
The same measure, in the same setting: in the case of `CCOC(=O)C1=C2C[C@H](NS(C)(=O)=O)CN2C(c2nccs2)=N[C@H]1c1ccc(F)cc1Cl` [Example 125] it was > 7.00.
As for `CCOC(=O)C1=C2C[C@@H](NS(C)(=O)=O)CN2C(c2nccs2)=N[C@H]1c1ccc(F)cc1Cl` [Example 126], the pEC50 is > 7.00.
On to `CCOC(=O)C1=C2C[C@@H](N(C)S(C)(=O)=O)CN2C(c2nccs2)=N[C@H]1c1ccc(F)cc1Br` [Example 127], for which the pEC50 is > 7.00.
Turning to `CCOC(=O)C1=C2C[C@H](NS(=O)(=O)C(F)F)CN2C(c2nccs2)=N[C@H]1c1ccc(F)cc1Cl` [Example 128], the pEC50 is > 7.00.
On the same count and under the same terms, for `CCOC(=O)C1=C2C[C@H](NS(=O)(=O)/C=C/F)CN2C(c2nccs2)=N[C@H]1c1ccc(F)cc1Cl` [Example 129] the value was > 7.00.
The same measure, in the same setting: in the case of `CCOC(=O)C1=C2C[C@H](N3CCOCC3)CN2C(c2nccs2)=N[C@H]1c1ccc(F)cc1Cl` [Example 130] it was > 7.00.
Still for that read-out and setting: in the case of `CCOC(=O)C1=C2C[C@H](N3CCCC3C(=O)OC)CN2C(c2nccs2)=N[C@H]1c1ccc(F)cc1Cl` (stereo partly drawn) [Example 131] it was 5.30 to 6.00; in that of `CCOC(=O)C1=C2C[C@H](NS(=O)(=O)c3cnn(C)c3)CN2C(c2nccs2)=N[C@H]1c1ccc(F)cc1Cl` [Example 132], > 7.00; in that of `CCOC(=O)C1=C2C[C@H](NC(=O)C(F)F)CN2C(c2nccs2)=N[C@H]1c1ccc(F)cc1Cl` [Example 133], 6.30 to 7.00.
As to `CCOC(=O)C1=C2CN(Cc3ccc(OC)cc3)S(=O)(=O)CN2C(c2nccs2)=N[C@H]1c1ccc(F)cc1Br` [Example 134], the pEC50 is 5.30 to 6.00.
Same read-out and setting: in the case of `CCOC(=O)C1=C2CNS(=O)(=O)CN2C(c2nccs2)=N[C@H]1c1ccc(F)cc1Br` [Example 135] it was 6.00 to 6.30; in that of `CCOC(=O)C1=C2CN(C)S(=O)(=O)CN2C(c2nccs2)=N[C@H]1c1ccc(F)cc1Br` [Example 136], 6.00 to 6.30.
The same measure, in the same setting: for `CCOC(=O)C1=C2C[C@H](C(=O)NS(=O)(=O)C(F)(F)F)CN2C(c2nccs2)=N[C@H]1c1ccc(F)cc1F` [Example 137] the value was 5.30 to 6.00.
Same read-out and setting: for `CCOC(=O)C1=C2C[C@H](NS(C)(=O)=O)CN2C(c2nccs2)=N[C@H]1c1ccc(F)cc1F` [Example 138] the value was > 7.00; for `CCOC(=O)C1=C2C[C@H](NC(=O)C3COC3)CN2C(c2nccs2)=N[C@H]1c1ccc(F)cc1Cl` [Example 139], 5.30 to 6.00; for `CCOC(=O)C1=C2C[C@H](N[S+]([O-])C(C)(C)C)CN2C(c2nccs2)=N[C@H]1c1ccc(F)cc1Cl` (stereo partly drawn) [Example 140], 6.00 to 6.30.

The test is the same for the next values; noted with them: Hepatitis B virus, HepG2.2.15, read-out: BIOACTIVITY (inhibitory actions on HBV DNA, EC50), summary list of target compounds, Examples 1-165 (same as Table 2).
On to `CCOC(=O)C1=C2CNS(=O)(=O)CN2C(c2nccs2)=N[C@H]1c1ccc(F)cc1Br` [Example 135], for which the pEC50 was 6.00 to 6.30.

The same test, now with this note: Hepatitis B virus, HepG2.2.15, summary list of target compounds, Examples 1-165 (same as Table 2), read-out: BIOACTIVITY (inhibitory actions on HBV DNA, EC50).
Regarding `CCOC(=O)C1=C2C[C@H](NS(=O)(=O)C(C)C)CN2C(c2nccs2)=N[C@H]1c1ccc(F)cc1Br` [Example 117], the pEC50 is > 7.00.
Still for that read-out and setting: for `CCOC(=O)C1=C2CN(C(=O)C3COC3)CCN2C(c2nccs2)=N[C@H]1c1ccc(F)cc1Br` [Example 118] the value was 6.30 to 7.00.
On the same count and under the same terms, in the case of `CCOC(=O)C1=C2C[C@@H](CNC(C)=O)CN2C(c2nccs2)=N[C@H]1c1ccc(F)cc1Br` [Example 119] it was > 7.00; in that of `CCOC(=O)C1=C2C[C@H](CNC(C)=O)CN2C(c2nccs2)=N[C@H]1c1ccc(F)cc1Br` [Example 120], > 7.00; in that of `CCOC(=O)C1=C2C[C@H](CNS(=O)(=O)C3CC3)CN2C(c2nccs2)=N[C@H]1c1ccc(F)cc1Br` [Example 121], > 7.00.
In the case of `CCOC(=O)C1=C2C[C@@H](CNS(=O)(=O)C3CC3)CN2C(c2nccs2)=N[C@H]1c1ccc(F)cc1Br` [Example 122], the pEC50 is 5.30 to 6.00.
On to `CCOC(=O)C1=C2C[C@@H](NS(=O)(=O)C(F)F)CN2C(c2nccs2)=N[C@H]1c1ccc(F)cc1Br` [Example 123], for which the pEC50 was > 7.00.
For the compound `CCOC(=O)C1=C2C[C@H](NS(=O)(=O)C(F)F)CN2C(c2nccs2)=N[C@H]1c1ccc(F)cc1Br` [Example 124], the pEC50 was > 7.00.
Same read-out and setting: for `CCOC(=O)C1=C2C[C@H](NS(C)(=O)=O)CN2C(c2nccs2)=N[C@H]1c1ccc(F)cc1Cl` [Example 125] the value was > 7.00.
Still for that read-out and setting: in the case of `CCOC(=O)C1=C2C[C@@H](NS(C)(=O)=O)CN2C(c2nccs2)=N[C@H]1c1ccc(F)cc1Cl` [Example 126] it was > 7.00.
Still for that read-out and setting: in the case of `CCOC(=O)C1=C2C[C@@H](N(C)S(C)(=O)=O)CN2C(c2nccs2)=N[C@H]1c1ccc(F)cc1Br` [Example 127] it was > 7.00.
Turning to `CCOC(=O)C1=C2C[C@H](NS(=O)(=O)C(F)F)CN2C(c2nccs2)=N[C@H]1c1ccc(F)cc1Cl` [Example 128], the pEC50 is > 7.00.
On the same count and under the same terms, for `CCOC(=O)C1=C2C[C@H](NS(=O)(=O)/C=C/F)CN2C(c2nccs2)=N[C@H]1c1ccc(F)cc1Cl` [Example 129] the value was > 7.00.
Still for that read-out and setting: for `CCOC(=O)C1=C2C[C@H](N3CCOCC3)CN2C(c2nccs2)=N[C@H]1c1ccc(F)cc1Cl` [Example 130] the value was > 7.00; for `CCOC(=O)C1=C2C[C@H](N3CCCC3C(=O)OC)CN2C(c2nccs2)=N[C@H]1c1ccc(F)cc1Cl` (stereo partly drawn) [Example 131], 5.30 to 6.00; for `CCOC(=O)C1=C2C[C@H](NS(=O)(=O)c3cnn(C)c3)CN2C(c2nccs2)=N[C@H]1c1ccc(F)cc1Cl` [Example 132], > 7.00.
On to `CCOC(=O)C1=C2C[C@H](NC(=O)C(F)F)CN2C(c2nccs2)=N[C@H]1c1ccc(F)cc1Cl` [Example 133], for which the pEC50 was 6.30 to 7.00.
On the same count and under the same terms, in the case of `CCOC(=O)C1=C2CN(Cc3ccc(OC)cc3)S(=O)(=O)CN2C(c2nccs2)=N[C@H]1c1ccc(F)cc1Br` [Example 134] it was 5.30 to 6.00; in that of `CCOC(=O)C1=C2CN(C)S(=O)(=O)CN2C(c2nccs2)=N[C@H]1c1ccc(F)cc1Br` [Example 136], 6.00 to 6.30; in that of `CCOC(=O)C1=C2C[C@H](C(=O)NS(=O)(=O)C(F)(F)F)CN2C(c2nccs2)=N[C@H]1c1ccc(F)cc1F` [Example 137], 5.30 to 6.00.
Same read-out and setting: for `CCOC(=O)C1=C2C[C@H](NS(C)(=O)=O)CN2C(c2nccs2)=N[C@H]1c1ccc(F)cc1F` [Example 138] the value was > 7.00; for `CCOC(=O)C1=C2C[C@H](NC(=O)C3COC3)CN2C(c2nccs2)=N[C@H]1c1ccc(F)cc1Cl` [Example 139], 5.30 to 6.00.
On the same count and under the same terms, for `CCOC(=O)C1=C2C[C@H](N[S+]([O-])C(C)(C)C)CN2C(c2nccs2)=N[C@H]1c1ccc(F)cc1Cl` (stereo partly drawn) [Example 140] the value was 6.00 to 6.30.
